From US9725445B2, “Cycloalkyl nitrile pyrazolo pyridones as Janus kinase inhibitors” (Merck Sharp & Dohme Corp., priority 2013, dated 2017)

Molecular target: JAK1 (Homo sapiens (Human), UniProt P23458)
Assay: Jak biochemical HTRF assay, JAK1
Settings: HTRF biochemical assay, recombinant GST-tagged catalytic domain; read-out: JAK1 IC50
Procedure: Jak Biochemical HTRF Assay Protocol
The ability of compounds to inhibit the activity of JAK1, JAK2, JAK3, and Tyk2 was measured using a recombinant purified GST-tagged catalytic domain for each enzyme (Invitrogen JAK1 #M4290, JAK2 #M4290, JAK3 #M4290, Tyk2 #M4290) in an HTRF format biochemical assay. […] The basic assay protocol is as follows: First, 250 nL of diluted compounds in DMSO were dispensed into the wells of a dry 384-well Black plate (Greiner #781076) using a Labcyte Echo 555 acoustic dispenser. Subsequent reagent additions employed an Agilent Bravo. […] After equilibration, 2 μL of 10×ATP in 1× assay buffer was added to initiate the kinase reaction and the plates were shaken and then incubated at room temperature for 120 minutes. […] Plates were shaken and centrifuged and then incubated 60 minutes at room temperature and then read on a Perkin Elmer Envision (λex=337 nm, λem=665 and 615 nm, TRF delay time=20 μs). HTRF signal=10,000*665 nm reading/615 nm reading. After normalization to untreated controls, the percent inhibition of the HTRF signal at each compound concentration was calculated. The plot of percent inhibition versus the log of compound concentration was fit with a 4-parameter dose response equation to calculate IC50 values.
Final Reaction Conditions were:
Examples of the instant invention were evaluated in JAK1 and JAK2 in vitro binding assays.

Chain of JAK1 (P23458 875-1153): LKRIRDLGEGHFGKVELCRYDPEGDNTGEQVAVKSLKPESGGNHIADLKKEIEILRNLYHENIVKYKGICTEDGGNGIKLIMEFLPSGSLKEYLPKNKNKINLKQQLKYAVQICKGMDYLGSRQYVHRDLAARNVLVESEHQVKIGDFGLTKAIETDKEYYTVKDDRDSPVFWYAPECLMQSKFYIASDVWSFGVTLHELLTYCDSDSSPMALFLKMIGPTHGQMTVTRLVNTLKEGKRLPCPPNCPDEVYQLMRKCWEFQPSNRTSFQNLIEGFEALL

## CC1(C)C(O)c2cc(Nc3nn([C@H]4CCCC[C@@H]4C#N)c4cc[nH]c(=O)c34)ccc2S1(=O)=O (single isomer, unassigned) [Example 3-172, (1S,2S)-2-(3-{[(3S or 3R)-3-hydroxy-2,2-dimethyl-1,1-dioxido-2,3-dihydro-1-benzothiophen-5-yl]amino}-4-oxo-4,5-dihydro-1H-pyrazolo[4,3-c]pyridin-1-yl)cyclohexanecarbonitrile]
  IC50: 390 pM

## N#C[C@H]1CCCC[C@@H]1n1nc(Nc2ccc([C@]3(O)CC[C@H](C(=O)O)CC3)cc2)c2c(=O)[nH]ccc21 [Example 17-2]
  IC50: 530 pM

## CC(C)(C)S(=O)(=O)c1ccc(Nc2nn([C@H]3CCCC[C@@H]3C#N)c3cc[nH]c(=O)c23)cc1 [Example 3-143, (1S,2S)-2-(3-{[4-(tert-butylsulfonyl)phenyl]amino}-4-oxo-4,5-dihydro-1H-pyrazolo[4,3-c]pyridin-1-yl)cyclohexanecarbonitrile]
  IC50: 120 pM

## C[C@H](N[C@@H]1CC[C@@H](n2nc(Nc3ccc(C(F)(F)F)cc3)c3c(=O)[nH]ccc32)[C@H](C#N)C1)C1CC1 [Example 5-14, (1R,2R,5R)-5-(((S)-1-cyclopropylethyl)amino)-2-(4-oxo-3-((4-(trifluoromethyl)phenyl)amino)-4,5-dihydro-1H-pyrazolo[4,3-c]pyridin-1-yl)cyclohexanecarbonitrile]
  IC50: 9400 pM

## N#C[C@H]1CCCC[C@@H]1n1nc(Nc2ccc3c(c2)CN(CC2CC2)C3)c2c(=O)[nH]ccc21 [Example 3-77, (1S,2S)-2-(3-{[2-(cyclopropylmethyl)-2,3-dihydro-1H-isoindol-5-yl]amino}-4-oxo-4,5-dihydro-1H-pyrazolo[4,3-c]pyridin-1-yl)cyclohexanecarbonitrile]
  IC50: 520 pM

## CC(C)(C)[S@+]([O-])N[C@H](c1ccc(Nc2nn([C@H]3CCCC[C@@H]3C#N)c3cc[nH]c(=O)c23)cc1)C(F)(F)F [Example 3-56, N-{(1R)-1-[4-({1-[(1S,2S)-2-cyanocyclohexyl]-4-oxo-4,5-dihydro-1H-pyrazolo[4,3-c]pyridin-3-yl}amino)phenyl]-2,2,2-trifluoroethyl}-2-methylpropane-2-sulfinamide]
  IC50: 310 pM

## CC(C)(C)N1Cc2cc(Nc3nn([C@@H]4CCCCC[C@@H]4C#N)c4cc[nH]c(=O)c34)ccc2S1(=O)=O (single isomer, unassigned) [Example 3-179, (1S,2R or 1R,2S)-2-{3-[(2-tert-butyl-1,1-dioxido-2,3-dihydro-1,2-benzisothiazol-5-yl)amino]-4-oxo-4,5-dihydro-1H-pyrazolo[4,3-c]pyridin-1-yl}cycloheptanecarbonitrile]
  IC50: 460 pM

## CC(c1ccc(Nc2nn([C@H]3CCCC[C@@H]3C#N)c3cc[nH]c(=O)c23)cc1)n1nccn1 (single isomer, unassigned) [Example 15-22, (1S,2S)-2-[4-oxo-3-({4-[(1R or 1S)-1-(2H-1,2,3-triazol-2-yl)ethyl]phenyl}amino)-4,5-dihydro-1H-pyrazolo[4,3-c]pyridin-1-yl]cyclohexanecarbonitrile]
  IC50: 480 pM

## N#C[C@H]1CCC[C@@H]1n1nc(Nc2ccc(C3(C(F)(F)F)CCCCN3)cc2)c2c(=O)[nH]ccc21 (single isomer, unassigned) [Example 15-72, (1S,2S)-2-[4-oxo-3-({4-[(2R or 2S)-2-(trifluoromethyl)piperidin-2-yl]phenyl}amino)-4,5-dihydro-1H-pyrazolo[4,3-c]pyridin-1-yl]cyclopentanecarbonitrile]
  IC50: 77 pM

## N#C[C@H]1C[C@@H](N2CC(O)C2)CC[C@@H]1n1nc(Nc2ccc(Cl)cc2)c2c(=O)[nH]ccc21 [Example 5-20, (1S,2S,5S)-2-(3-((4-chlorophenyl)amino)-4-oxo-4,5-dihydro-1H-pyrazolo[4,3-c]pyridin-1-yl)-5-(3-hydroxyazetidin-1-yl)cyclohexanecarbonitrile]
  IC50: 140 pM

## N#C[C@H]1CCCC[C@@H]1n1nc(Nc2cccc(CN)c2)c2c(=O)[nH]ccc21 [Example 6-1, (1S,2S)-2-(3-((3-(Aminomethyl)phenyl)amino)-4-oxo-4,5-dihydro-1H-pyrazolo[4,3-c]pyridin-1-yl)cyclohexanecarbonitrile]
  IC50: 1500 pM

## N#C[C@H]1CCCC[C@@H]1n1nc(Nc2ccc(-c3ccon3)cc2)c2c(=O)[nH]ccc21 [Example 15-4, (1S,2S)-2-{3-[(4-isoxazol-3-ylphenyl)amino]-4-oxo-4,5-dihydro-1H-pyrazolo[4,3-c]pyridin-1-yl}cyclohexanecarbonitrile]
  IC50: 180 pM

## N#C[C@H]1C[C@H](N2CC(O)C2)CC[C@@H]1n1nc(Nc2ccc(Cl)cc2)c2c(=O)[nH]ccc21 [Example 5-19, (1S,2S,5R)-2-(3-((4-chlorophenyl)amino)-4-oxo-4,5-dihydro-1H-pyrazolo[4,3-c]pyridin-1-yl)-5-(3-hydroxyazetidin-1-yl)cyclohexanecarbonitrile]
  IC50: 110 pM

## CS(=O)(=O)c1ccc(Nc2nn([C@H]3CCC[C@@H]3C#N)c3cc[nH]c(=O)c23)cc1 [Example 3-94, (1S,2S)-2-(3-{[4-(methylsulfonyl)phenyl]amino}-4-oxo-4,5-dihydro-1H-pyrazolo[4,3-c]pyridin-1-yl)cyclopentanecarbonitrile]
  IC50: 120 pM

## Cc1cc(Nc2nn([C@H]3CCCC[C@@H]3C#N)c3cc[nH]c(=O)c23)ccc1C(C(C)C)n1nccn1 (single isomer, unassigned) [Example 15-35, (1S,2S)-2-[3-({3-methyl-4-[(1S or 1R)-2-methyl-1-(2H-1,2,3-triazol-2-yl)propyl]phenyl}amino)-4-oxo-4,5-dihydro-1H-pyrazolo[4,3-c]pyridin-1-yl]cyclohexanecarbonitrile]
  IC50: 1200 pM

## CC1c2cc(Nc3nn([C@H]4CCCC[C@@H]4C#N)c4cc[nH]c(=O)c34)ccc2S(=O)(=O)N1CC(F)(F)F (single isomer, unassigned) [Example 3-128, (1S,2S)-2-(3-(((R or S)-3-methyl-1,1-dioxido-2-(2,2,2-trifluoroethyl)-2,3-dihydrobenzo[d]isothiazol-5-yl)amino)-4-oxo-4,5-dihydro-1H-pyrazolo[4,3-c]pyridin-1-yl)cyclohexanecarbonitrile]
  IC50: 95 pM

## C[C@H](N[C@@H]1CC[C@H](n2nc(Nc3ccc(C(F)(F)F)cc3)c3c(=O)[nH]ccc32)[C@@H](C#N)C1)C1CC1 [Example 5-11, (1S,2S,5R)-5-(((S)-1-cyclopropylethyl)amino)-2-(4-oxo-3-((4-(trifluoromethyl)phenyl)amino)-4,5-dihydro-1H-pyrazolo[4,3-c]pyridin-1-yl)cyclohexanecarbonitrile]
  IC50: 3000 pM

## CC(C)(CO)CN1Cc2cc(Nc3nn([C@H]4CCCC[C@@H]4C#N)c4cc[nH]c(=O)c34)ccc2S1(=O)=O [Example 3-82, (1S,2S)-2-(3-{[2-(3-hydroxy-2,2-dimethylpropyl)-1,1-dioxido-2,3-dihydro-1,2-benzisothiazol-5-yl]amino}-4-oxo-4,5-dihydro-1H-pyrazolo[4,3-c]pyridin-1-yl)cyclohexanecarbonitrile]
  IC50: 110 pM

## N#C[C@H]1CCCC[C@@H]1n1nc(Nc2cccc(CNC(=O)c3cnco3)c2)c2c(=O)[nH]ccc21 [Example 3-12, N-[3-({1-[(1S,2S)-2-cyanocyclohexyl]-4-oxo-4,5-dihydro-1H-pyrazolo[4,3-c]pyridin-3-yl}amino)benzyl]-1,3-oxazole-5-carboxamide]
  IC50: 310 pM
